Results as given in patent publication US7709475B2, “Selective inhibitors against Cdk4 and Cdk6 having aminothiazole skeleton” (Banyu Pharmaceutical Co., Ltd., priority 2004, dated 2010).

Legend:
cyclin D2-Cdk4 = target: T1, cyclin D2-Cdk4 (Homo sapiens, UniProt P11802); assay: Cdk4 inhibitory action: cyclin D2-Cdk4 kinase activity, 33P-ATP, RB peptide substrate; type: biochemical; conditions: cyclin D2-Cdk4, 50 μM ATP
T1 construct: made in house; host or cells: insect cell Sf9 (baculovirus)
Description: First, the cDNA of Cdk4, and the cDNA of a fusion protein of cyclin D2, an activating factor of Cdk4, and glutathione S-transferase, were integrated into a baculovirus expression vector to prepare a recombinant baculovirus. This was co-transfected into insect cell Sf9 to express an active complex of the cyclin D2/glutathione S-transferase fusion protein-Cdk4 at a high level. The cells were recovered and solubilized, then the active complex was adsorbed onto Glutathione Sepharose, and a cyclin D2-Cdk4 complex was recovered using Precision Protease and was purified by HPLC column chromatography [EMBO J., Vol. 15, 7060-7069 (1996)].
For the measurement of the activity of cyclin D2-Cdk4, a synthetic peptide (Arg-Pro-Pro-Thr-Leu-Ser-Pro-Ile-Pro-His-Ile-Pro-Arg) corresponding to amino acid residue No. 775-787 of RB protein was used as the substrate [EMBO J., Vol. 15, 7060-7069 (1996)].
The reaction was performed by partially modifying the method of Kitagawa et al. [Oncogene, Vol. 7, 1067-1074 (1992)]. The volume of the reaction solution was 21.1 μL, and the composition of the reaction buffer (R buffer) was 20 mM Tris-hydrochloric acid buffer (pH 7.4)/10 mM magnesium chloride/4.5 mM 2-mercaptoethanol/1 mM ethylene glycol bis(β-aminoethyl ether)-N,N,N′,N′-tetraacetic acid (EGTA). To this reaction buffer, purified cyclin D2-Cdk4, 100 μM of the substrate peptide, 50 μM of non-labeled adenosine triphosphate (ATP), and 1 μCi of [γ-33P]-labeled ATP (2000 to 4000 Ci/mmole) were added to react at 30° C. for 45 minutes. Then, 10 μL of 350 mM phosphate buffer was added to the reaction system to terminate the reaction. The substrate peptide was adsorbed onto P81 paper filter on a 96-well plate, and then washed several times with 75 mM phosphate buffer. The radioactivity of the substrate peptide was measured with a liquid scintillation counter. The [γ-33P]-labeled ATP was purchased from Daiichi Pure Chemicals Co., Ltd.
Addition of the test compound to the reaction system was carried out by first preparing a dilution series of solutions of the compound in dimethylsulfoxide (DMSO), and adding 1.1 μL of the dilutions. A control was provided by adding 1.1 μL of DMSO to the reaction system.
A representative compound of the compounds according to the invention was selected, and the IC50 value of this compound for the cyclin D2-Cdk4 activity was determined.

cyclin T1-Cdk9 = target: T2, cyclin T1-Cdk9 (Homo sapiens, UniProt P50750); assay: Cdk9 inhibitory action: cyclin T1-Cdk9 kinase activity; type: biochemical; conditions: cyclin T1-Cdk9, 50 μM ATP
T2 construct: made in house; host or cells: insect cell Sf9 (baculovirus)
T2 sequence (P50750 whole entry): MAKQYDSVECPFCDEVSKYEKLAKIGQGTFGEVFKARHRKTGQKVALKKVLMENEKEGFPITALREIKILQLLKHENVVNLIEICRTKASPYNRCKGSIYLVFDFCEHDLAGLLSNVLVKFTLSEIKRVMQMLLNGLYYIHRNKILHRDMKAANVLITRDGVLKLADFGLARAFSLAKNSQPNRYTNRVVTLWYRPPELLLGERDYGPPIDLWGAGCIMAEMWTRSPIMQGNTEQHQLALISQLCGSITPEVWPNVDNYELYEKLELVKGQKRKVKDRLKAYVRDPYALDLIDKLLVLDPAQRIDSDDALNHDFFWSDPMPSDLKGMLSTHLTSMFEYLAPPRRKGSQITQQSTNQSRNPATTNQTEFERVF
T2 sequence (O60563 whole entry partner): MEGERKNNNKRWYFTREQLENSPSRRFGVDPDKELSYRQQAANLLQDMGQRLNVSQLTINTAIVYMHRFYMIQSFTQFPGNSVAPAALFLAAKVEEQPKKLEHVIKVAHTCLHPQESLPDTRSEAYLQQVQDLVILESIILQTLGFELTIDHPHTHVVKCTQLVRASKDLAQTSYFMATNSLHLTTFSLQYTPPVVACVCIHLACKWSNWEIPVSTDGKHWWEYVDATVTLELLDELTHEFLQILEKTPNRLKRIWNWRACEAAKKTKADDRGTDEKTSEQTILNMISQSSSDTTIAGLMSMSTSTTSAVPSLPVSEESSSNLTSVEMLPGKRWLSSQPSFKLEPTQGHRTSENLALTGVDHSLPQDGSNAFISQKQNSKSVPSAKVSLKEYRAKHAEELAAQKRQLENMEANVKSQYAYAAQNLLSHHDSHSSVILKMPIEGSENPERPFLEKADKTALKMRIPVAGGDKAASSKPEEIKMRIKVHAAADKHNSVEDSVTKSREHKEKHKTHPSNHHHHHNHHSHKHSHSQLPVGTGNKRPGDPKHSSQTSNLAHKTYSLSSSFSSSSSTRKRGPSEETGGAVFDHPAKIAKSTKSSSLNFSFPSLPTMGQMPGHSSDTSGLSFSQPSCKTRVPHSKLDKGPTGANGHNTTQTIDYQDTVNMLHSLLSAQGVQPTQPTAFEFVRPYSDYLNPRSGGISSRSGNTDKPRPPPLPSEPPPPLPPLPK
Description: The cDNA of Cdk9, and the cDNA of a fusion protein of cyclin T1, an activating factor of Cdk9, and glutathione S-transferase, were integrated into a baculovirus expression vector to prepare a recombinant baculovirus. This was co-transfected into insect cell Sf9 to express an active complex of the cyclin T1/glutathione S-transferase fusion protein-Cdk9 at a high level. The cells were recovered and solubilized, and the active complex was adsorbed onto Glutathione Sepharose, and then was purified by elution with 10 mM reductive glutathione. The solution containing the eluted active complex was dialyzed against B buffer (composition: 20 mM Tris-hydrochloric acid buffer (pH 7.4)/200 mM sodium chloride/0.1% Tween-20/10 mM 2-mercaptoethanol/1 mM dithiothreitol/10% glycerol) to remove the reductive glutathione.
For the measurement of the activity of cyclin T1-Cdk9, a synthetic peptide ([…] was used as the substrate.
(§1) The reaction was performed by partially modifying the method of Kitagawa et al. [Oncogene, Vol. 7, 1067-1074 (1992)]. The volume of the reaction solution was 21.1 μL, and to the R buffer, purified cyclin T1-Cdk9, 25 μM of the substrate peptide, 50 μM of non-labeled adenosine triphosphate (ATP), and 0.5 μCi of [γ-33P]-labeled ATP (2000 to 4000 Ci/mmole) were added to react at 30° C. for 20 minutes. Then, 10 μL of 350 mM phosphate buffer was added to the reaction system to terminate the reaction. The substrate peptide was adsorbed onto P81 paper filter on a 96-well plate, and then washed several times with 75 mM phosphate buffer. The radioactivity of the substrate peptide was measured with a liquid scintillation counter.
Addition of the compound according to the invention to the reaction system was carried out by first preparing a dilution series of solutions of the compound in dimethylsulfoxide (DMSO), and adding […] of the dilutions. A control was provided by adding 1.1 μL of DMSO to the reaction system.
A representative compound of the compounds according to the invention was selected, and the IC50 value (nM) of this compound for the cyclin T1-Cdk9 activity was determined.

JURKAT = assay: Inhibitory action against cell proliferation (WST-8), JURKAT; type: cell-based; conditions: Homo sapiens, 72 h, Jurkat cells, 3 days culture, read-out: concentration for 50% inhibition of cell proliferation (IC50), Jurkat
Protocol: Clinically isolated cancer cell lines EOL-1, KU812 and JURKAT were cultured in RPMI1640 medium containing 10% fetal calf serum at 37° C. in the presence of 5% CO2 under an atmosphere of saturated steam.
The inhibitory action against cell proliferation was measured by modifying the method of Skehan et al. [J. Natl. Cancer Inst., Vo. 82, 1107-1112 (1990)] according to the method of Ishiyama et al. [Talanta, Vol. 44, 1299 (1997)]. 100 μL each of cell culture medium containing 1×10^3 live cells of EOL-1, KU812 and JURKAT, respectively, was dispensed into each well of a 96-well cell culture dish, and the cells were cultured overnight. On the next day, a dilution series of solutions in DMSO was prepared from a DMSO solution of the compound of each Example. Then, the dilution series of solutions or DMSO only as a control for no drug addition were separately added to the medium for cell culture. Finally, 100 μL each of the culture medium containing either the dilution series of solutions of the compounds or DMSO only, was added to the cells which had been cultured in a 96-well dish, and then the cells were further cultured for 3 days.
After adding 20 μL each of WST-8 (Kishida Chemical Co., Ltd.) to each well and culturing the cells for another 2 hours, the optical densities at 450 nm were measured against a reference wavelength of 650 nm, and were compared with the control group. The results obtained by determining the concentrations for 50% inhibition of cell proliferation (IC50 (nM)) of the compounds of Examples are presented in the following Table 4.

cyclin H-Cdk7 = target: T3, cyclin H-Cdk7 (Homo sapiens, UniProt P50613); assay: Cdk7 inhibitory action: cyclin H-Cdk7 kinase activity; type: biochemical; conditions: cyclin H-Cdk7, 50 μM ATP
T3 construct: made in house; host or cells: insect cell Sf9 (baculovirus)
T3 sequence (P50613 whole entry): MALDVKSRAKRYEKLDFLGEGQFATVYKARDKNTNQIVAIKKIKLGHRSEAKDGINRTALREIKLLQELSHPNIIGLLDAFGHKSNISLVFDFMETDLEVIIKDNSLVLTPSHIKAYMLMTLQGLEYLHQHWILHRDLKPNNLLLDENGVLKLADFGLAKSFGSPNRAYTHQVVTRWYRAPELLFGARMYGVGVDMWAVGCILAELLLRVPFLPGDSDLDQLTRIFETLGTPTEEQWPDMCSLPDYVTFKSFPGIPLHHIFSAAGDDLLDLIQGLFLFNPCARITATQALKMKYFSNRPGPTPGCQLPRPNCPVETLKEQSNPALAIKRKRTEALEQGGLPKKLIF
T3 sequence (P51946 whole entry partner): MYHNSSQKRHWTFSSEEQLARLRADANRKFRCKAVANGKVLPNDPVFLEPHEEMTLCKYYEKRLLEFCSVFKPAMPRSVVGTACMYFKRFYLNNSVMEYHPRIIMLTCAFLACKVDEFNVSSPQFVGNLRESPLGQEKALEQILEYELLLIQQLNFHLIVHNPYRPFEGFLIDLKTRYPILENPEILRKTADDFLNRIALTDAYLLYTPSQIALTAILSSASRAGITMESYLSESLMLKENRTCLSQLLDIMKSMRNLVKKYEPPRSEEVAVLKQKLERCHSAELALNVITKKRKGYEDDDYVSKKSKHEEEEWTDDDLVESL
Description: The cDNA of Cdk7, and the cDNA of a fusion protein of cyclin H, an activating factor of Cdk7, and glutathione S-transferase, were integrated into a baculovirus expression vector to prepare a recombinant baculovirus. This was co-transfected into insect cell Sf9 to express an active complex of the cyclin H/glutathione S-transferase fusion protein-Cdk7 at a high level. The cells were recovered and solubilized, then the active complex was adsorbed onto Glutathione Sepharose, and a cyclin H-Cdk7 active complex was recovered using Precision Protease.
For the measurement of the activity of cyclin H-Cdk7, a synthetic peptide ([…] was used as the substrate.
as §1, with “cyclin H-Cdk7,” for “cyclin T1-Cdk9,”, “and 1” for “and 0.5”, “for 45” for “for 20”
Addition of the compound according to the invention to the reaction system was carried out by first preparing a dilution series of solutions of the compound in dimethylsulfoxide (DMSO), and adding 1.1 μL of the dilutions. A control was provided by adding 1.1 μL of DMSO to the reaction system.
A representative compound of the compounds according to the invention was selected, and the IC50 value of this compound for the cyclin H-Cdk7 activity was determined.

T1 sequence (P11802 whole entry): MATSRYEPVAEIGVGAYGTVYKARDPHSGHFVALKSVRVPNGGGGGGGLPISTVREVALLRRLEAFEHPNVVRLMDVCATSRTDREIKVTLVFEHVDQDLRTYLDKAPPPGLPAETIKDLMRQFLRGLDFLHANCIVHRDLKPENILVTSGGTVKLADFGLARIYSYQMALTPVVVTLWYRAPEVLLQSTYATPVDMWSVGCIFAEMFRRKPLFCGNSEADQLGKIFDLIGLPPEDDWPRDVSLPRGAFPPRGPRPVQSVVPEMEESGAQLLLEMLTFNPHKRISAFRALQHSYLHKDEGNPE
T1 sequence (P30279 whole entry partner): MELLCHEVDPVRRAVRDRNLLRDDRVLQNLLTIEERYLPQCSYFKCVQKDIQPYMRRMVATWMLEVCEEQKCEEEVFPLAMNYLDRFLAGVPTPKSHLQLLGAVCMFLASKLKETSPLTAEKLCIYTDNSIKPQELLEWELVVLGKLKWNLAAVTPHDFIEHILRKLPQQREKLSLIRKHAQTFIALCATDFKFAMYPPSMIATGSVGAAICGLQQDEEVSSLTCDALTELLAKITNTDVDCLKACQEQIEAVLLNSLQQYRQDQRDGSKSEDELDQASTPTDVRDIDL

Q: What does the source list for `CCNCc1cnc(Nc2ncc(-c3cc(C)nc(NC4CCCCC4)n3)s2)cn1` [Example 52, 5-[2-(cyclohexylamino)-6-methyl-4-pyrimidinyl]-2-[5-(ethylamino)methyl-2-pyrazinyl]amino-1,3-thiazole]?
A: IC50 (cyclin D2-Cdk4): 5.5 nM; IC50 (cyclin T1-Cdk9): 330 nM; IC50 (JURKAT): 160 nM; IC50 (cyclin H-Cdk7): 210 nM

Q: Which results are given for `CCNCc1cnc(Nc2ncc(-c3cc(C)nc(Sc4ccccc4Cl)n3)s2)cn1` [Example 105, 5-[2-(2-chlorophenylthio)-6-methyl-4-pyrimidinyl]-2-[5-(ethylamino)methyl-2-pyrazinyl]amino-1,3-thiazole]?
A: IC50 (cyclin D2-Cdk4): 5.3 nM; IC50 (cyclin T1-Cdk9): 180 nM; IC50 (cyclin H-Cdk7): 370 nM

Q: `Cc1cc(-c2cnc(Nc3cnc(CNC(C)C)cn3)s2)nc(Sc2ccccc2Cl)n1` [Example 106, 5-[2-(2-chlorophenylthio)-6-methyl-4-pyrimidinyl]-2-[5-(isopropylamino)methyl-2-pyrazinyl]amino-1,3-thiazole] was tested. Which IC50 (cyclin D2-Cdk4) did it give?
A: 8.4 nM

Q: And the IC50 (cyclin T1-Cdk9)?
A: 310 nM

Q: And the IC50 (JURKAT)?
A: 63 nM

Q: And the IC50 (cyclin H-Cdk7)?
A: 560 nM

Q: What does the source list for `CNCc1cnc(Nc2ncc(-c3cc(C)nc(Sc4ccccc4Cl)n3)s2)cn1` [Example 107]?
A: IC50 (cyclin D2-Cdk4): 8.8 nM; IC50 (cyclin T1-Cdk9): 250 nM; IC50 (JURKAT): 63 nM; IC50 (cyclin H-Cdk7): 830 nM

Q: With `Cc1cc(-c2cnc(Nc3cnc(CN4CCC[C@H]4CO)cn3)s2)nc(Sc2ccccc2Cl)n1` [Example 110, (2S)-5-[2-(2-chlorophenylthio)-6-methyl-4-pyrimidinyl]-2-[5-(2-hydroxymethyl-1-pyrrolidinyl)methyl-2-pyrazinyl]amino-1,3-thiazole] as the molecule, how does the IC50 (cyclin D2-Cdk4) read?
A: 10 nM

Q: And the IC50 (cyclin T1-Cdk9)?
A: 320 nM

Q: What about the IC50 (JURKAT) of the same molecule?
A: 73 nM

Q: And the IC50 (cyclin H-Cdk7)?
A: 490 nM

Q: What does the source list for `Cc1cc(-c2cnc(Nc3cnc(CN4CCCC4)cn3)s2)nc(Sc2ccccc2Cl)n1` [Example 113, 5-[2-(2-chlorophenylthio)-6-methyl-4-pyrimidinyl]-2-[5-(1-pyrrolidinyl)methyl-2-pyrazinyl]amino-1,3-thiazole]?
A: IC50 (cyclin D2-Cdk4): 13 nM; IC50 (cyclin T1-Cdk9): 880 nM; IC50 (JURKAT): 72 nM; IC50 (cyclin H-Cdk7): 560 nM

Q: How did the IC50 (cyclin D2-Cdk4) turn out when `Cc1cc(-c2cnc(Nc3cnc(CN(C)CCO)cn3)s2)nc(Sc2ccccc2Cl)n1` [Example 114, 5-[2-(2-chlorophenylthio)-6-methyl-4-pyrimidinyl]-2-{5-[(2-hydroxyethyl)methylamino]methyl-2-pyrazinyl}amino-1,3-thiazole] was run?
A: 13 nM

Q: And the IC50 (cyclin T1-Cdk9)?
A: 1600 nM

Q: And the IC50 (JURKAT)?
A: 83 nM

Q: And the IC50 (cyclin H-Cdk7)?
A: 780 nM

Q: What does the source list for `Cc1cc(-c2cnc(Nc3cnc(CN4CC[C@@H](O)C4)cn3)s2)nc(Sc2ccccc2Cl)n1` [Example 118, (3R)-5-[2-(2-chlorophenylthio)-6-methyl-4-pyrimidinyl]-2-[5-(3-hydroxy-1-pyrrolidinyl)methyl-2-pyrazinyl]amino-1,3-thiazole]?
A: IC50 (cyclin D2-Cdk4): 20 nM; IC50 (cyclin T1-Cdk9): 980 nM; IC50 (JURKAT): 90 nM; IC50 (cyclin H-Cdk7): 990 nM
